Reference: patent publication US9708305B2, “Substituted 1,2,3,4-tetrahydroisoquinoline derivatives for the treatment of hormone-dependent diseases” (UNIVERSITÉ LAVAL, priority 2013, dated 2017)

Target: T1, STS (Homo sapiens, UniProt P08842)
T1 construct: expressed in transfected cells; host or cells: HEK-293 cells stably transfected with STS (G418 selection), obtained from Dr. Van Luu-The; used as freeze-thaw homogenate
T1 sequence (P08842 22-583): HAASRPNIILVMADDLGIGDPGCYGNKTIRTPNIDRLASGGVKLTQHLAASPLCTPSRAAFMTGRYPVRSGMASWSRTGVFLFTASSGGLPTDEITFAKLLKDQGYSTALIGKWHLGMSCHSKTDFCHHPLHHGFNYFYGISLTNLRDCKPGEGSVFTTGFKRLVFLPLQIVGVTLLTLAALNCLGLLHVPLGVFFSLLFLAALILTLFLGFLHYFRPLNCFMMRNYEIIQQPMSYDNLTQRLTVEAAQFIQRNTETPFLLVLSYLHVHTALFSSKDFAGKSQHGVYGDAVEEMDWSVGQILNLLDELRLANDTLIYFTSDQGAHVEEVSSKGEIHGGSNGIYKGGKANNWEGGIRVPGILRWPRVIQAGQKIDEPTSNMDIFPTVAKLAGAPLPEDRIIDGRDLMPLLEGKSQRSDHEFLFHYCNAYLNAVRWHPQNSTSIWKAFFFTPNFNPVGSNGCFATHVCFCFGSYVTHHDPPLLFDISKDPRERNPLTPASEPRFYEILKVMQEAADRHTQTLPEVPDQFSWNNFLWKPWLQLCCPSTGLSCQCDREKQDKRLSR
Assay: STS inhibition of libraries 1-EO to 4-EO, homogenate of STS transfected HEK-293 cells
Assay type: biochemical
Conditions: mean ± SEM, triplicate
Experimental: The enzymatic assay was performed using homogenate of STS transfected HEK-293 cells as the source of enzyme activity. The transformation of [^3H]-E1S into [^3H]-E1 was measured using scintillation counting of labeled E1S and E1 in the aqueous and organic phases, respectively. Newly synthesized sulfamate compounds were tested at two concentrations (0.1 μM and 1 μM). Libraries 1-EO and 2-EO were synthesized using the p- and m-benzamide spacers as 1st level of molecular diversity and the same wide variety of secondary amines as 2nd level of diversity (Table 2), which were chosen in a somewhat random fashion while including a different pattern, format and heteroatom. […] Compounds 1-EO-07, 1-EO-09 and 1-EO-10 represent a starting point for optimization, as they show more than 36% of inhibition when tested at a concentration of 0.1 μM. These compounds have relatively hydrophobic substituents compared to the rest of the library members. […] The average log P value for the rest of the library, excluding these three compounds, is 1.93.
This enzymatic assay was carried out according to a procedure previously described for the transformation of substrate [^3H]-E1S (100 μM) into [^3H]-E1 by homogenated HEK-293 cells over-expressing the enzyme activity.^56,73

inhibition at 0.1 µM (0.1 μM) [%] | inhibition at 1 µM (1 μM) [%] | Structure (SMILES) | STS inhibition (%) (0.1 μM) | STS inhibition (%) (1 μM)
 |  | NS(=O)(=O)Oc1ccc2c(c1)CN(C(=O)c1ccc(CN3CCC(N4CCCCC4)CC3)cc1)CC2 [1-EO-08] | 8.5 ± 1.2 | 53.7 ± 4.7
 |  | CCCN(Cc1ccccc1)Cc1cccc(C(=O)N2CCc3ccc(OS(N)(=O)=O)cc3C2)c1 [4-EO-01] | 23.1 ± 7.5 | 67.4 ± 10.9
 |  | CN1CCN(Cc2cccc(C(=O)N3CCc4ccc(OS(N)(=O)=O)cc4C3)c2)CC1 [2-EO-04] | 0.0 ± 12.2 | 12.6 ± 2.3
10 | 31 | CCN(Cc1ccccc1)Cc1ccc(S(=O)(=O)N2CCc3ccc(OS(N)(=O)=O)cc3C2)cc1 [Compound 14] |  | 
 |  | CCN(Cc1ccncc1)Cc1ccc(C(=O)N2CCc3ccc(OS(N)(=O)=O)cc3C2)cc1 [3-EO-16] | 47.0 ± 1.8 | 86.6 ± 1.8
 |  | NS(=O)(=O)Oc1ccc2c(c1)CN(C(=O)c1cccc(CN(Cc3ccccc3)Cc3ccco3)c1)CC2 [4-EO-11] | 27.5 ± 0.9 | 
 |  | NS(=O)(=O)Oc1ccc2c(c1)CN(C(=O)c1cccc(CN3CCC(N4CCCCC4)CC3)c1)CC2 [2-EO-08] | 0.0 ± 2.4 | 8.0 ± 1.1
 |  | CC(C)CCN(CCC(C)C)Cc1cccc(C(=O)N2CCc3ccc(OS(N)(=O)=O)cc3C2)c1 [4-EO-09] | 32.3 ± 2.9 | 
 |  | CC(C)CCN(CCC(C)C)Cc1ccc(C(=O)N2CCc3ccc(OS(N)(=O)=O)cc3C2)cc1 [3-EO-09] | 47.0 ± 13.0 | 90.8 ± 1.7
 |  | NS(=O)(=O)Oc1ccc2c(c1)CN(C(=O)c1cccc(CN(CCO)Cc3ccccc3)c1)CC2 [4-EO-02] | 26.7 ± 7.2 | 32.4 ± 6.3
 |  | NS(=O)(=O)Oc1ccc2c(c1)CN(C(=O)c1ccc(CN3CCN(Cc4ccccc4)CC3)cc1)CC2 [1-EO-05] | 20.8 ± 3.7 | 75.8 ± 1.6
 |  | CN(C)CCN(Cc1ccccc1)Cc1cccc(C(=O)N2CCc3ccc(OS(N)(=O)=O)cc3C2)c1 [4-EO-04] | 0.0 ± 0.0 | 28.6 ± 2.2
 |  | CCN(Cc1ccncc1)Cc1cccc(C(=O)N2CCc3ccc(OS(N)(=O)=O)cc3C2)c1 [4-EO-16] | 33.3 ± 0.0 | 52.8 ± 1.3
 |  | CCN(Cc1cccc(C(=O)N2CCc3ccc(OS(N)(=O)=O)cc3C2)c1)Cc1ccccn1 [4-EO-14] | 6.5 ± 6.9 | 19.9 ± 12.6
 |  | CCN(Cc1cccc(Br)c1)Cc1cccc(C(=O)N2CCc3ccc(OS(N)(=O)=O)cc3C2)c1 [4-EO-12] | 20.9 ± 7.1 | 24.9 ± 0.6
 |  | CN(CCN1CCCCC1)Cc1cccc(C(=O)N2CCc3ccc(OS(N)(=O)=O)cc3C2)c1 [4-EO-06] | 24.5 ± 7.4 | 30.8 ± 6.4
 |  | CN(C)CCN(CCN(C)C)Cc1ccc(C(=O)N2CCc3ccc(OS(N)(=O)=O)cc3C2)cc1 [3-EO-08] | 3.8 ± 9.6 | 15.9 ± 21.5
 |  | NS(=O)(=O)Oc1ccc2c(c1)CN(C(=O)c1cccc(CN3CCN(Cc4ccccc4)CC3)c1)CC2 [2-EO-05] | 0.0 ± 3.1 | 23.7 ± 0.6
 |  | CCCN(CCC)Cc1ccc(C(=O)N2CCc3ccc(OS(N)(=O)=O)cc3C2)cc1 [1-EO-10] |  | 84.7 ± 0.2
